Read-outs that look alike come from different tables or passages of the source.
How the values were obtained:
human OX1 receptor = target: T1, human OX1 receptor (Homo sapiens, UniProt O43613); experiment: Measurement of orexin receptor antagonistic activity (calcium fluorescence, FLIPRtetra); type: cell-based; conditions: CHO, read-out: Human Orexin1 receptor inhibition (at 10 μM)
T1 construct: expressed in transfected cells; host or cells: CHO cells
T1 sequence (O43613 1-425): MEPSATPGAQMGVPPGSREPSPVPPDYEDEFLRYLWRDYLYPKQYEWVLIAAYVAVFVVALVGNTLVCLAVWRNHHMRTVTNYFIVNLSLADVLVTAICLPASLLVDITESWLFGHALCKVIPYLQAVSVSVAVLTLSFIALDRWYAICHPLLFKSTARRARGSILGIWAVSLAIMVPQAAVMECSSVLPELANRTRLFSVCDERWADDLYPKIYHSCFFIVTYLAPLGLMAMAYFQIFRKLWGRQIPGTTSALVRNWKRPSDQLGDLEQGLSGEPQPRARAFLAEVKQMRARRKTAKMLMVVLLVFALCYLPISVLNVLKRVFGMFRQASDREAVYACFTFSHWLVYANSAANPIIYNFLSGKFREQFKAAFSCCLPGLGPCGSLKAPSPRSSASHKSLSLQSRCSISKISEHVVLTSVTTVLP
Procedure, shortened: (§1)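 Calcium fluorescence measured by FLIPRtetra every second for 2 min after orexin-A challenge, 1 nM final for OX1 and 0.3 nM final for OX2. Receptor-expressing CHO cells received compound in HEPES-buffered HBSS with 0.1% BSA just before agonist.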

human OX2 receptor = target: T2, human OX2 receptor (Homo sapiens, UniProt O43614); experiment: as above; type: cell-based; conditions: CHO, read-out: Human Orexin2 receptor inhibition (at 10 μM)
T2 construct: expressed in transfected cells; host or cells: CHO cells
T2 sequence (O43614 1-444): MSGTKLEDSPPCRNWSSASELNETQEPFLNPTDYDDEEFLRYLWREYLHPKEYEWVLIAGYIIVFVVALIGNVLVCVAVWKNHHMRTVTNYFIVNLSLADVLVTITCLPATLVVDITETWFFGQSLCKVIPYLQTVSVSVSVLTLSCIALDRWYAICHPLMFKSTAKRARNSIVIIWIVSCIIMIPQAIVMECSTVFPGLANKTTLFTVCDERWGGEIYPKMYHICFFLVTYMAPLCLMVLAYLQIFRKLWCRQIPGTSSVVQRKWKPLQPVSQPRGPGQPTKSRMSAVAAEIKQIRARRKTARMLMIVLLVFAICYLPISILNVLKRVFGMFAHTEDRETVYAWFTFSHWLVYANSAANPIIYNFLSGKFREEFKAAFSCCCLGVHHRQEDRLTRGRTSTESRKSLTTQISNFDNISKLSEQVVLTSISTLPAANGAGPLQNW
Procedure, shortened: as §1

[1] = 10 μM test compound, CHO cells expressing human OX1 receptor, OX-A 1 nM
[2] = 10 μM test compound, CHO cells expressing human OX2 receptor, OX-A 0.3 nM

Row | SMILES | inhibition at 10 µM (human OX1 receptor; [1]) [%] | inhibition at 10 µM (human OX2 receptor; [2]) [%] | inhibition at 10 µM (human OX1 receptor) [%] | inhibition at 10 µM (human OX2 receptor) [%]
1 | COc1cccnc1N1CCN(C(=O)c2cc(C)ccc2-n2nccn2)[C@H](C)CO1 [Example 123, ((6R)-2-(3-methoxypyridin-2-yl)-6-methyl-1,2,5-oxadiazepan-5-yl) (5-methyl-2-(2H-1,2,3-triazol-2-yl)phenyl)methanone] | 23 | 74 |  | 
2 | Cc1ccc(-n2nccn2)c(C(=O)N2CCN(c3nc(C)cnc3C)OC[C@H]2C)c1 [Example 129, ((6R)-2-(3,6-dimethylpyrazin-2-yl)-6-methyl-1,2,5-oxadiazepan-5-yl) (5-methyl-2-(2H-1,2,3-triazol-2-yl)phenyl)methanone] | 38 | 86 |  | 
3 | Cc1ccc(-n2nccn2)c(C(=O)N2CCN(c3cn4ccccc4n3)OC[C@H]2C)c1 [Example 130, ((6R)-2-(imidazo[1,2-a]pyridin-2-yl)-6-methyl-1,2,5-oxadiazepan-5-yl) (5-methyl-2-(2H-1,2,3-triazol-2-yl)phenyl)methanone] |  |  | 62 | 56
4 | Cc1cncc(N2CCN(C(=O)c3cc(C)ccc3-n3nccn3)[C@H](C)CO2)c1 [Example 131, ((6R)-6-methyl-2-(5-methylpyridin-3-yl)-1,2,5-oxadiazepan-5-yl) (5-methyl-2-(2H-1,2,3-triazol-2-yl)phenyl)methanone] |  |  | -7 | 38
5 | COc1cncc(N2CCN(C(=O)c3cc(C)ccc3-n3nccn3)[C@H](C)CO2)c1 [Example 132, ((6R)-2-(5-methoxypyridin-3-yl)-6-methyl-1,2,5-oxadiazepan-5-yl) (5-methyl-2-(2H-1,2,3-triazol-2-yl)phenyl)methanone] | 10 | 67 |  | 

Second part, led by results:

Row | inhibition at 10 µM (human OX1 receptor; [1]) [%] | inhibition at 10 µM (human OX2 receptor; [2]) [%] | SMILES | inhibition at 10 µM (human OX1 receptor) [%] | inhibition at 10 µM (human OX2 receptor) [%]
6 | 11 | 69 | Cc1ccc(-n2nccn2)c(C(=O)N2CCN(c3ncccc3Cl)OC[C@H]2C)c1 [Example 122, ((6R)-2-(3-chloropyridin-2-yl)-6-methyl-1,2,5-oxadiazepan-5-yl) (5-methyl-2-(2H-1,2,3-triazol-2-yl)phenyl)methanone] |  | 
7 | 85 | 101 | Cc1ccc(-n2nccn2)c(C(=O)N2CCN(c3cccc(C)n3)OC[C@H]2C)c1 [Example 124, ((6R)-6-methyl-2-(6-methylpyridin-2-yl)-1,2,5-oxadiazepan-5-yl) (5-methyl-2-(2H-1,2,3-triazol-2-yl)phenyl)methanone] |  | 
8 | 68 | 98 | Cc1ccnc(N2CCN(C(=O)c3cc(C)ccc3-n3nccn3)[C@H](C)CO2)c1 [Example 125, ((6R)-6-methyl-2-(4-methylpyridin-2-yl)-1,2,5-oxadiazepan-5-yl) (5-methyl-2-(2H-1,2,3-triazol-2-yl)phenyl)methanone] |  | 
9 | 96 | 97 | COc1cccc(N2CCN(C(=O)c3cc(C)ccc3-n3nccn3)[C@H](C)CO2)n1 [Example 126, ((6R)-2-(6-methoxypyridin-2-yl)-6-methyl-1,2,5-oxadiazepan-5-yl) (5-methyl-2-(2H-1,2,3-triazol-2-yl)phenyl)methanone] |  | 
10 | 66 | 86 | Cc1ccc(-n2nccn2)c(C(=O)N2CCN(c3cc(C(F)(F)F)ccn3)OC[C@H]2C)c1 [Example 127, (5-methyl-2-(2H-1,2,3-triazol-2-yl)phenyl) ((6R)-6-methyl-2-(4-(trifluoromethyl)pyridin-2-yl)-1,2,5-oxadiazepan-5-yl)methanone] |  | 
11 | 99 | 96 | Cc1ccc(-n2nccn2)c(C(=O)N2CCN(c3cccc(C(F)(F)F)n3)OC[C@H]2C)c1 [Example 128, (5-methyl-2-(2H-1,2,3-triazol-2-yl)phenyl) ((6R)-6-methyl-2-(6-(trifluoromethyl)pyridin-2-yl)-1,2,5-oxadiazepan-5-yl)methanone] |  | 
